# Laboratory results reported in US20220125877A1, “METHOD FOR TREATING COLORECTAL CANCER” (SUN YAT-SEN UNIVERSITY, priority 2019, published 2022).
# Assays:
# [1] = system: KRAS mutation CRC cells LoVo; experiment: Cell cycle, PI/RNase staining, flow cytometry; assay type: cell-based, human; details: 24 h, FIG. 8C
# Procedure: (§1) 1) The cells were inoculated onto a 6-well plate, and subjected to adherence growth for 12 h, then starvation treatment over the night, and treated with the addition of an agent for 24 h, then the cells were digested and washed for 3 times with PBS and centrifuged to discard supernatant; −20° C. pre-cooled 70% ethanol was added dropwise, and the cells were mixed well by vortex, and immobilized over the night at −20° C.
# (§2) 2) The cells were horizontally centrifuged for 10 min at 2000 rpm to discard the supernatant; then the cells were washed with PBS for 2-3 times to remove the residual ethanol with centrifugation for 5 min each time.
# (§3) 3) The cells were resuspended by 500 μL PI/RNase dyeing liquor, and incubated for 15 min in the dark, and put on a flow cytometry within 2 h for detection, and 488 nm wavelength was stimulated.
# (§4) 4) FlowJo 7.6 software was used for graphing analysis.
# [2] = system: KRAS wildtype CRC cells SW48; experiment: Cell cycle, PI/RNase staining, flow cytometry; assay type: cell-based, human; details: 24 h, FIG. 8C
# Procedure: as §1, §2, §3, §4
# [3] = system: LoVo cell line with stable knock-down KRAS; experiment: Concentration of metformin in cells by mass spectrometry; assay type: cell-based, human; details: relative to LoVo, FIG. 11D
# Source text: (§5) The increase of concentration of metformin in KRAS mutation cells was verified by using the KRAS (G13D) mutation cells constructed via the CRISPR/Cas9 system and the LoVo cell line with stable knock-down KRAS.
# (§6) Metformin was used to detect the KRAS (G13D) mutation cells constructed via the CRISPR/Cas9 system and the LoVo cell line with stable knock-down KRAS to collect cell lysis solution at different time points, and the concentration of metformin in the cells was detected by mass spectrometry.
# [4] = system: KRAS (G13D) mutation cells constructed via the CRISPR/Cas9 system; experiment: as above; assay type: cell-based, human; details: compared with the control cell, FIG. 11C
# Source text: as §5, §6
# [5] = system: ERK and AKT signaling pathways of KRAS mutation CRC cells in PDX tumor tissues; experiment: Western blot of PDX tumor tissues; assay type: in vivo, BALB/c nude mice; details: FIG. 9F
# Source text: (2) Tumor tissues from PDX animals were taken and homogenated to extract protein for WB.
# [6] = system: ERK, RB, MPK, AKT, mTOR and 4E-BP1 phosphorylation in SW48; experiment: Western blot of MEK/ERK/cyclin D1/RB and PI3K/AKT/mTOR/4E-BP1 signaling; assay type: cell-based, human; details: 24 h, FIGS. 9A-C
# Procedure: (§7) Western blot was used to detect the change of metformin on the related molecules of sroliferative signaling pathways MEK/ERK/cyclin D1/RB and PI3K/AKT/mTOR/4E-BP1, which clarifies the mechanism of metformin in inhibiting the proliferation of KRAS mutation CRC cells.
# (§8) 1) Cells were inoculated on a culture dish and cultured to 60% of fusion degree, and treated with the addition of an agent for 24 h.
# (§9) 2) Protein was collected, and washed with PBS for 3 times, then added with 100 μl 1 RSDS buffer solution (100 mmol/1 Tris-Cl pH6.8, 2% SDS, 10% glycerinum), and at this time, the cell lysis solution was sticky.
# (§10) 3) The cell lysis solution was collected into a 0.5 ml centrifugal tube with a scraper, and cooked for 30 min at 100° C.
# (§11) 4) The total protein extractive in the cells was subjected to protein quantification according to a BCA kit process (BIO-RAD company).
# (§12) 5) The sample was treated according to a ratio of 9 μl denatured protein sample: 1 μl denatured buffer solution (β-mercaptoethanol (BME), 0.4% Bromphenol Blue), and boiled for 30 min at 100° C. for further use.
# (§13) 6) A prepared SDS-PAGE gel (10% separation gel and 5% stacking gel) was taken; samples were added with 40 ug/well, and subjected gel electrophoresis for 30 min at 80V, and gel electrophoresis for 90 min at 120V. […]
# [7] = system: ERK, RB, MPK, AKT, mTOR and 4E-BP1 phosphorylation in LoVo; experiment: as above; assay type: cell-based, human; details: 24 h, FIGS. 9A-C
# Procedure: as §7, §8, §9, §10, §11, §12, §13
# [8] = system: 4E-BP1 phosphorylation in LoVo cell line with knock-down KRAS protein; experiment: Western blot of signaling pathways; assay type: cell-based, human; details: FIG. 9E
# Procedure: as §7, §8, §9, §10, §11, §12, §13
# [9] = system: cyclinD1/RB and AKT/mTOR/4E-BP1 signaling pathways in KRAS (G13D) mutation SW48 cell line; experiment: Western blot of signaling pathways; assay type: cell-based, human; details: FIG. 9D
# Procedure: as §7, §8, §9, §10, §11, §12, §13
# [10] = system: KRAS G13D, G12D and G12V mutation colorectal cancer cells; experiment: Cell viability, metformin with a gradient concentration; assay type: cell-based, human; details: FIG. 6
# Procedure: The cells were inoculated on a plate according to the concentration of 5000 cells/well (48-well plate, 200 μl per well). The cells were treated with different ways according to the experimental requirements, and 10 μl CCK8 solution was added after a period of time. The cells were incubated for 1 h in an incubator; 200 μl supernatant were absorbed into a 96-well ELISA plate to determine OD450 with a microplate reader.
# (2) Metformin with a gradient concentration was used in vitro to treat KRAS wildtype colorectal cancer cell lines SW48 and CaCO2, KRAS G13D-mutation colorectal cancer cell lines HCT-116 and LoVo, as well as KRAS G12V-mutation colorectal cancer cell lines SW480 and SW620. In addition, the metformin with a gradient concentration was used to treat the KRAS wildtype colorectal cancer cell line SW48 transfected with KRAS G12V, KRAS G13D and KRAS G12D plasmids.
# [11] = system: KRAS mutation CRC cells LoVo; experiment: Plate clone formation; assay type: cell-based, human; details: FIGS. 8A-B
# Procedure: (§14) 1) Cell inoculation: the culture solution was absorbed and discarded to collect the cells, then the cells were suspended in a treatment condition culture solution, and counted for 3 times to obtain a mean value, then the concentration of a cell suspension was adjusted to 1×10^3/ml. 2.5 ml treatment condition culture solution was respectively added to per well of a 6-well culture plate; 0.5 ml cell suspension (namely, 500 cells per well) was added per well with a final volume of 3 ml. Note that the culture plate was shaken repeatedly according to a cross-shaped direction during inoculation, such that the cells were distributed evenly as much as possible.
# (§15) 3) Clone staining: the culture was stopped when the cells formed visible clones (the number of cloned cells per well was about 50-150) by the naked eyes. The culture medium was discarded, and the clones were soaked and washed for twice with PBS carefully, 1.5 ml 4% paraformaldehyde was respectively added per well for immobilization for 15 min; then the immobilization solution was discarded, and the clones were cleaned with running water slowly; 1.5 ml crystal violet working solution was added per well, standing at room temperature, and the clones were stained for 30 min, and the staining solution was cleaned with running water slowly, then the remaining clones were dried in a draught cupboard. […]
# [12] = system: KRAS wildtype CRC cells SW48; experiment: Plate clone formation; assay type: cell-based, human; details: FIGS. 8A-B
# Procedure: as §14, §15
smiles,measurement,setting,value
CN(C)C(=N)N=C(N)N [metformin],ratio of phase S cells,[1],reduces
same,ratio of G1 cells,[1]; concentration dependent,dependently increases
same,"cell cycle distribution (G1, phase S)",[2],no obvious effect
same,concentration of metformin in cells,[3],decreases obviously
same,concentration of metformin in cells,[4],obviously increased concentration
same,ERK and AKT signaling pathways in PDX tumor tissues,[5],inhibits
same,"phosphorylation levels in ERK, RB, MPK, AKT, mTOR and 4E-BP1",[6],no obvious change
same,"phosphorylation levels in ERK, RB, MPK, AKT, mTOR and 4E-BP1",[7],inhibited phosphorylation levels
same,inhibiting effect on LoVo protein and 4E-BP1 phosphorylation after interference of KRAS (G13D) expression,[8],down-regulate the inhibiting effect
same,change of the cyclinD1/RB and AKT/mTOR/4E-BP1 signaling pathways,[9],consistent with the KRAS mutation CRC cells LoVo
same,effect on cell viability,[10],has an inhibiting effect
same,clone formation,[11],inhibits the clone formation
same,clone formation,[12],no obvious effect
